Data as given in patent US10550100B2, “5-[3-[piperzin-1-yl]-3-oxo-propyl]-imidazolidine-2,4-dione derivatives as ADAMTS 4 and 5 inhibitors for treating E.G. osteoarthritis” (GALAPAGOS NV, priority 2016, dated 2020).
Like-named read-outs stand apart in the source and are kept apart here.

How the values were obtained:
Assay type in all cases: biochemical
human ADAMTS6 = human ADAMTS6 (Homo sapiens (Human), UniProt Q9UKP5); assay: hADAMTS-6 520 MMP FRET substrate XII cleavage assay; details: 37° C. for 2 h, read-out: hADAMTS-6 potency IC50
Sequence of human ADAMTS6 (Q9UKP5 other isoform, or with tags, fused parts or gaps): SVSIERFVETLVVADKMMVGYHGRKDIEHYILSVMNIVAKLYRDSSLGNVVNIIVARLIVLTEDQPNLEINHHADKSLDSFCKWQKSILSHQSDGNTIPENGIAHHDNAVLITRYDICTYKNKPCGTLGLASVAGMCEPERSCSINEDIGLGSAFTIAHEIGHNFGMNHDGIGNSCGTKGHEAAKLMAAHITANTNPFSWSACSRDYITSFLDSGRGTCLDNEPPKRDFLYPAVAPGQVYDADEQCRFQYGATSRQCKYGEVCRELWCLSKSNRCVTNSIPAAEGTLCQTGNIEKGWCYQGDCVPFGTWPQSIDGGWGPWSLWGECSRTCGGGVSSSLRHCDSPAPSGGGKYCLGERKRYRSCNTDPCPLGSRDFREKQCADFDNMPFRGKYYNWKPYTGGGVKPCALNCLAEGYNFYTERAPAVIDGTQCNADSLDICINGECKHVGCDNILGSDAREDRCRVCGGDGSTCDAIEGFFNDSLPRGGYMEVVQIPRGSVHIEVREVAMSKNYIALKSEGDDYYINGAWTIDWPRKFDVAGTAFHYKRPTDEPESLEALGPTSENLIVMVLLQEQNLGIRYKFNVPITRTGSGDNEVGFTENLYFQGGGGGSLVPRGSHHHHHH
Source text: The IC50 value for test compounds can be determined in a fluorescent based protease assay.
The basis for the assay is the cleavage of the substrate 520 MMP FRET substrate XII by human ADAMTS6.
The substrate contains sequence Arg-Pro-Lys-Pro-Tyr-Ala-Nva-Trp-Met-Lys (SEQ ID NO: 7) with attached a fluorescent probe and a quencher. Without ADAMTS6, the emission of the probe is quenched. If the substrate is cleaved by ADAMTS6, the emission of the probe is not quenched anymore. Inhibition of ADAMTS6 activity, will result in a decrease of the signal.
To perform the assay, 4 μL of a dilution series of compound in water, starting from 20 μM highest concentration, 1/5 dilution, is added to the wells. 2 ng ADAMTS6 enzyme is diluted in 25 mM Tris pH8.0, 0.05% CHAPS, 2.5 mM CaCl2 in a total volume of 26 μL (final concentration 0.73 nM). The reaction is started by addition of 10 μL of 1 μM 520 MMP FRET Substrate XII (final concentration, diluted in same buffer as described above) and the mixture is incubated at 37° C. for 2 h. […] After this incubation, cleavage of the substrate is measured using the Envision (Perkin Elmer, exc485/em530).

human TACE = human TACE (Homo sapiens (Human), UniProt P78536); assay: hTACE 5FAM-[…]-5TAMRA cleavage assay; details: 75 min at room temperature, read-out: hTACE potency IC50
Sequence of human TACE (P78536 215-671): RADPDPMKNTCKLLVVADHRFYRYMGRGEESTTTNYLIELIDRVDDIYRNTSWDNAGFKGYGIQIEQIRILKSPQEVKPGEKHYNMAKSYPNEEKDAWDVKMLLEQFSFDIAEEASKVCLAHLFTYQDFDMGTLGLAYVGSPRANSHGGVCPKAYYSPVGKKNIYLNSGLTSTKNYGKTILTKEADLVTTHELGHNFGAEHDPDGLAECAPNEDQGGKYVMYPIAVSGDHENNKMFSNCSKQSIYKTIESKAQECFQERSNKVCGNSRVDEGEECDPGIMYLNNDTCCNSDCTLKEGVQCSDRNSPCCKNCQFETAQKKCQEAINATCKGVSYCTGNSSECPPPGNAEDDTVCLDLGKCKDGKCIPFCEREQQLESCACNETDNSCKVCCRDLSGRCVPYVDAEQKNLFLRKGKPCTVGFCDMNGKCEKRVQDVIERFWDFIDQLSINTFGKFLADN
Method: Finally, the fluorescence is read on the Envision (Perkin Elmer) after an incubation of 75 min at room temperature (Excitation 485 nm, Emission 530).

human MMP13 [1] = target: T1, human MMP13 (Homo sapiens (Human), UniProt P45452); assay: hMMP13 390 MMP FRET Substrate I cleavage assay, Protocol 2; details: Protocol 2, 390 MMP FRET Substrate I; read-out: hMMP-13 potency IC50
Method: (§1) The basis for the assay is the cleavage of the substrate 390 MMP FRET Substrate I (Anaspec Cat# AS-27076) by human MMP13 (Chemicon, Cat#CC068).
(§2) Human MMP13 is preactivated by incubated the enzyme in the same buffer complemented with 1 mM freshly prepared p-Aminophenylmercuric acetate (AMPA) for 1 h at 37° C.
(§3) The reaction is initiated by adding to the assay plate 390 MMP FRET Substrate I (10 μL, 2.5 μM) in the same buffer.
(§4) Finally, the fluorescence is read on the Envision (Perkin Elmer) after an incubation of 45 min at room temperature (Excitation 485 nm, Emission 530).

human MMP14 = human MMP14 (Homo sapiens (Human), UniProt P50281); assay: hMMP14 390 MMP FRET Substrate I cleavage assay; details: 60 min at room temperature, read-out: hMMP-14 potency IC50
Method: The basis for the assay is the cleavage of the substrate 390 MMP FRET Substrate I (Anaspec Cat# AS-27076) by human MMP14 (Biomol, Cat#SE-259).
as §3
Finally, the fluorescence is read on the Envision (Perkin Elmer) after an incubation of 60 min at room temperature (Excitation 485 nm, Emission 530).

human ADAMTS-5 = human ADAMTS-5 (Homo sapiens (Human), UniProt Q9UNA0); assay: hADAMTS-5 TBIS-1 cleavage assay, Protocol 3; details: Protocol 3, TBIS-1 substrate, 90 min at 37° C.; read-out: hADAMTS-5 potency IC50
Sequence of human ADAMTS-5 (Q9UNA0 262-930): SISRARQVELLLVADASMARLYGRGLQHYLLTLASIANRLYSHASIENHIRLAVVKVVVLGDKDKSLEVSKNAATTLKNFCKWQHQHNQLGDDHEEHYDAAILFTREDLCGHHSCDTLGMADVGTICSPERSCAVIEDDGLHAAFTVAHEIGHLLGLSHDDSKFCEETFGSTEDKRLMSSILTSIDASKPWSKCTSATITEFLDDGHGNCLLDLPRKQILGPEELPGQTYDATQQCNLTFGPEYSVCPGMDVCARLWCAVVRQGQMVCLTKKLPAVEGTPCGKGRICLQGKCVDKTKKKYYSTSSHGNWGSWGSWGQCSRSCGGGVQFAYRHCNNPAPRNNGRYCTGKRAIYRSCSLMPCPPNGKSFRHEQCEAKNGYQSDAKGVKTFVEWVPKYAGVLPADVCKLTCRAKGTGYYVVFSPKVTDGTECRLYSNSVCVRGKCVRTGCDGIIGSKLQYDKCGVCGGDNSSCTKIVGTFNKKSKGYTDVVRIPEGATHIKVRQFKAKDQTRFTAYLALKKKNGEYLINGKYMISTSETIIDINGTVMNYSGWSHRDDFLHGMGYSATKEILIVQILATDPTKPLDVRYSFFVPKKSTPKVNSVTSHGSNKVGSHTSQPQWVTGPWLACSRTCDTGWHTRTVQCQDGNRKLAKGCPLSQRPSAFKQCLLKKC
Method: The reaction is initiated by adding to the assay plate TBIS-1 (10 μL, 4.5 μM, Anaspec) in the same buffer.
Finally, the fluorescence is read on the Envision (Perkin Elmer) after an incubation of 90 min at 37° C. (Excitation 485 nm, emission 530).

human MMP13 [2] = target: T1, human MMP13; assay: hMMP13 390 MMP FRET Substrate I cleavage assay, Protocol 1; details: Protocol 1, 390 MMP FRET Substrate I; read-out: hMMP-13 potency IC50
Method: as §1, §2, §3, §4

Structure (SMILES)	IC50 (human ADAMTS6) [nM]	IC50 (human TACE; 5FAM-LAQAVRSSSRK-5TAMRA) [nM]	IC50 (human MMP13 [1]) [nM]	IC50 (human MMP14) [nM]	IC50 (human ADAMTS-5) [nM]	IC50 (human TACE; 5FAM-[…]-5TAMRA) [nM]	IC50 (human MMP13 [2]) [nM]
COc1cc(Cl)ccc1C1CCN(C(=O)[C@@H](C)C[C@@]2(C)NC(=O)NC2=O)CC1 (stereo in doubt) [Cpd 97, 5-[3-[4-(4-chloro-2-methoxy-phenyl)-1-piperidyl]-2-methyl-3-oxo-propyl]-5-methyl-imidazolidine-2,4-dione]	0.001 to 25	> 100	> 100	> 100	–	–	–
COC[C@]1(C[C@H](C)C(=O)N2CCC(c3cc(F)c(Cl)c(OC)c3)CC2)NC(=O)NC1=O (stereo in doubt) [Cpd 103, 5-[3-[4-(4-chloro-3-fluoro-5-methoxy-phenyl)-1-piperidyl]-2-methyl-3-oxo-propyl]-5-(methoxymethyl) imidazolidine-2,4-dione]	0.001 to 25	–	> 100	> 100	0.001 to 25	50 to 100	–
CCc1cc(C2CCN(C(=O)[C@@H](C)C[C@@]3(COC)NC(=O)NC3=O)CC2)cc(OC)c1Cl (stereo in doubt) [Cpd 104, 5-[3-[4-(4-chloro-3-ethyl-5-methoxy-phenyl)-1-piperidyl]-2-methyl-3-oxo-propyl]-5-(methoxymethyl) imidazolidine-2,4-dione]	0.001 to 25	–	> 100	> 100	25 to 50	50 to 100	–
COC[C@]1(C[C@H](C)C(=O)N2CCC(c3cc(Cl)c(F)cc3OC)CC2)NC(=O)NC1=O (stereo in doubt) [Cpd 107, 5-[3-[4-(5-chloro-4-fluoro-2-methoxy-phenyl)-1-piperidyl]-2-methyl-3-oxo-propyl]-5-(methoxymethyl) imidazolidine-2,4-dione]	0.001 to 25	–	> 100	> 100	–	50 to 100	–
COC[C@]1(C[C@H](C)C(=O)N2CCC(c3ccc(Cl)cc3OC)CC2)NC(=O)NC1=O (stereo in doubt) [Cpd 108, 5-[3-[4-(4-chloro-2-methoxy-phenyl)-1-piperidyl]-2-methyl-3-oxo-propyl]-5-(methoxymethyl) imidazolidine-2,4-dione]	0.001 to 25	–	> 100	> 100	–	50 to 100	–
COC[C@]1(C[C@H](C)C(=O)N2CCC(c3cc(F)c(Cl)cc3OC)CC2)NC(=O)NC1=O (stereo in doubt) [Cpd 109, 5-[3-[4-(4-chloro-5-fluoro-2-methoxy-phenyl)-1-piperidyl]-2-methyl-3-oxo-propyl]-5-(methoxymethyl) imidazolidine-2,4-dione]	0.001 to 25	–	> 100	> 100	–	50 to 100	–
COc1cc(F)c(Cl)cc1C1CCN(C(=O)[C@@H](C)C[C@@]2(C)NC(=O)NC2=O)CC1 (stereo in doubt) [Cpd 111, 5-[3-[4-(5-chloro-4-fluoro-2-methoxy-phenyl)-1-piperidyl]-2-methyl-3-oxo-propyl]-5-methyl-imidazolidine-2,4-dione]	0.001 to 25	–	> 100	> 100	–	50 to 100	–
COc1cc(C2CCN(C(=O)[C@@H](C)C[C@@]3(C)NC(=O)NC3=O)CC2)cc(C)c1Cl (stereo in doubt) [Cpd 113, 5-[3-[4-(4-chloro-3-methoxy-5-methyl-phenyl)-1-piperidyl]-2-methyl-3-oxo-propyl]-5-methyl-imidazolidine-2,4-dione]	0.001 to 25	–	> 100	> 100	25 to 50	50 to 100	–
COc1cc(Cl)ccc1C1CCN(C(=O)CC[C@H]2NC(=O)NC2=O)CC1 [Cpd 42, (R)-5-(3-(4-(4-chloro-2-methoxy-phenyl)piperidin-1-yl)-3-oxopropyl) imidazolidine-2,4-dione]	25 to 50	> 100	–	> 100	> 100	–	> 100
O=C1NC(=O)[C@@H](CCC(=O)N2CCC(c3ccc(Cl)c(F)c3)CC2)N1 [Cpd 51, (R)-5-(3-(4-(4-chloro-3-fluorophenyl)piperidin-1-yl)-3-oxopropyl) imidazolidine-2,4-dione]	50 to 100	> 100	–	> 100	> 100	–	> 100
Cc1ccccc1C1CCN(C(=O)CC[C@H]2NC(=O)NC2=O)CC1 [Cpd 58, (R)-5-(3-oxo-3-(4-o-tolylpiperidin-1-yl)propyl) imidazolidine-2,4-dione]	> 100	> 100	–	–	> 100	–	> 100

Second part, the compound after the results:

IC50 (human ADAMTS6) [nM]	IC50 (human TACE; 5FAM-LAQAVRSSSRK-5TAMRA) [nM]	IC50 (human MMP13 [1]) [nM]	IC50 (human MMP14) [nM]	IC50 (human ADAMTS-5) [nM]	IC50 (human TACE; 5FAM-[…]-5TAMRA) [nM]	IC50 (human MMP13 [2]) [nM]	Structure (SMILES)
0.001 to 25	> 100	–	> 100	> 100	–	> 100	COc1cc(Cl)ccc1C1CCN(C(=O)CCC2(C)NC(=O)NC2=O)CC1 (centres unmarked) [Cpd 44, 5-(3-(4-(4-chloro-2-methoxyphenyl)piperidin-1-yl)-3-oxopropyl)-5-methyl-imidazolidine-2,4-dione]
50 to 100	> 100	–	–	> 100	–	> 100	COc1cc(F)cc(C2CCN(C(=O)CCC3(C)NC(=O)NC3=O)CC2)c1 (centres unmarked) [Cpd 50, 5-(3-(4-(3-fluoro-5-methoxyphenyl)piperidin-1-yl)-3-oxopropyl)-5-methyl-imidazolidine-2,4-dione]
50 to 100	> 100	–	> 100	> 100	–	> 100	CC1(CCC(=O)N2CCC(c3ccc(Cl)c(F)c3)CC2)NC(=O)NC1=O (centres unmarked) [Cpd 54, 5-(3-(4-(4-chloro-3-fluorophenyl)piperidin-1-yl)-3-oxopropyl)-5-methyl-imidazolidine-2,4-dione]
50 to 100	> 100	–	> 100	> 100	–	> 100	COc1cc(C2CCN(C(=O)CCC3(C)NC(=O)NC3=O)CC2)ccc1F (centres unmarked) [Cpd 55, 5-(3-(4-(4-fluoro-3-methoxyphenyl)piperidin-1-yl)-3-oxopropyl)-5-methyl-imidazolidine-2,4-dione]
> 100	> 100	–	–	> 100	–	> 100	Cc1ccccc1C1CCN(C(=O)CCC2(C)NC(=O)NC2=O)CC1 (centres unmarked) [Cpd 57, 5-methyl-5-(3-oxo-3-(4-o-tolylpiperidin-1-yl)propyl) imidazolidine-2,4-dione]
0.001 to 25	–	> 100	–	> 100	25 to 50	–	COc1cc(Cl)cc(C2CCN(C(=O)CC[C@@]3(C)NC(=O)NC3=O)CC2)c1 [Cpd 66, (R)-5-(3-(4-(3-chloro-5-methoxyphenyl)piperidin-1-yl)-3-oxopropyl)-5-methyl-imidazolidine-2,4-dione]
–	–	> 100	–	> 100	–	–	COc1cc(Cl)cc(C2CCN(C(=O)CC[C@H]3NC(=O)NC3=O)CC2)c1 [Cpd 67, (R)-5-(3-(4-(3-chloro-5-methoxyphenyl)piperidin-1-yl)-3-oxopropyl) imidazolidine-2,4-dione]
0.001 to 25	–	> 100	> 100	–	50 to 100	–	COc1cc(C2CCN(C(=O)CC[C@@]3(C)NC(=O)NC3=O)CC2)cc(F)c1Cl [Cpd 84, (5R)-5-[3-[4-(4-chloro-3-fluoro-5-methoxy-phenyl)-1-piperidyl]-3-oxo-propyl]-5-methyl-imidazolidine-2,4-dione]
0.001 to 25	–	> 100	> 100	–	50 to 100	–	COc1cc(C2CCN(C(=O)CC[C@@]3(C)NC(=O)NC3=O)CC2)ccc1Cl [Cpd 85, (5R)-5-[3-[4-(4-chloro-3-methoxy-phenyl)-1-piperidyl]-3-oxo-propyl]-5-methyl-imidazolidine-2,4-dione]
